Here are results for one molecule from patent US20250243245A1 (priority 2022, published 2025).

Where two headings read alike, the source gives them in different places. Where a SMILES comes first, the peptide text is derived from it.

In data set [1] the test system is E. coli BL21.
In data set [2] the test system is ATCC25922.
The nature of data set [3]: in vitro. The following applies: human, HEK cells (HEK294 [sic]).
Data set [4] concerns tomato and tobacco leaves. The experiment in a line: Leaf infiltration toxicity on tomato and tobacco leaves.

In the case of `CC[C@H](C)[C@H](NC(=O)[C@H](CCCNC(=N)N)NC(=O)[C@H](CCCNC(=N)N)NC(=O)[C@H](CCC(N)=O)NC(=O)[C@H](Cc1c[nH]c2ccccc12)NC(=O)[C@H](Cc1ccccc1)NC(=O)CNC(=O)[C@@H]1CCCN1C(=O)[C@H](CO)NC(=O)CNC(=O)[C@H](Cc1ccc(O)cc1)NC(=O)CNC(=O)[C@H](CO)NC(=O)[C@H](CCC(=O)O)NC(=O)[C@H](CC(C)C)NC(=O)[C@@H](NC(=O)[C@H](CCCCN)NC(=O)[C@H](CC(C)C)NC(=O)[C@@H](NC(=O)[C@H](CCCCN)NC(=O)[C@H](CCC(=O)O)NC(=O)[C@@H]1CCCN1C(=O)[C@H](CC(C)C)NC(=O)[C@H](CCCCN)NC(=O)[C@@H](N)CCCCN)[C@@H](C)CC)[C@@H](C)CC)C(=O)N[C@@H](CCCNC(=N)N)C(=O)N[C@@H](CCCNC(=N)N)C(=O)N[C@@H](Cc1c[nH]c2ccccc12)C(=O)N[C@@H](CCCNC(=N)N)C(=O)N[C@@H](CCCNC(=N)N)C(=O)O` [UGK-13] (H-KKLPEKILKILESGYGSPGFWQRRIRRWRR-OH), the IC50 (as a rule, the concentration that gives 50% inhibition) stood at 1200 ± 100 nM in data set [1] (BL21); 1240 ± 20 nM in data set [1] (BL21, 24 h); 1400 ± 300 nM in data set [2]. For the same molecule, the cytotoxicity at 72 h, 20 µM in data set [3] was below 20%. For the same molecule, the “toxicity to tomato and tobacco” value in data set [4] (15-25 μM, even after 96 hours of leaf infiltration) was “not toxic”. Besides, the “corrosion of infiltrated tomato and tobacco leaves” value in data set [4] (24, 48, 72, and 96 hours of infiltration (FIGS. 8A-H)) is “no corrosion beyond the infiltrated spots”.
